Measurements from article PMC11224359, “Stable peptide-assembled nanozyme mimicking dual antifungal actions” (Nature Communications, 2024).
Like-named read-outs stand apart in the source and are kept apart here. Starred links: 1 amine or outer side, 2 acyl side, 3 side chain; linkers in the order of their positions; H or OH if unused. Positions of bridges follow the written chain, without caps; N, C: chain ends. Non-standard residues stand in square brackets, D forms with d. Residues, ends and D or L forms follow the SMILES beside them. No end group written: not given here. *: point of attachment. hTyr(3S-OH,4S-OH,3'-OSO3H) = N[C@H](C(=O)O)[C@H](O)[C@@H](O)c1ccc(O)c(OS(=O)(=O)O)c1; pTerphenylCO(4''-OnC5H11) = CCCCCOc1ccc(-c2ccc(-c3ccc(C(=O)*)cc3)cc2)cc1; Orn(4R-OH,5R-OH) = O=C([C@H](C[C@@H](O)[C@@H](O)N[*:3])N[*:1])[*:2]; hTyr(3S-OH,4S-OH) = N[C@H](C(=O)O)[C@H](O)[C@@H](O)c1ccc(O)cc1; Pro(3S-OH,4S-Me) = C[C@H]1CN[C@H](C(=O)O)[C@H]1O; X1 = CCCCCOc1ccc(-c2cc(-c3ccc(C(=O)*)cc3)no2)cc1; Gln(3R-OH) = NC(=O)C[C@@H](O)[C@H](N)C(=O)O; Hyp = O=C(O)[C@@H]1C[C@@H](O)CN1

Assays:
[1] = Variable temperature circular dichroism; type: physicochemical
Description: The Ultraviolet-visible (UV-VIS) spectroscopy of samples were collected by a Shimadzu UV-3600. For FTIR, 3 mg of powdered sample and 50 mg of potassium bromide (KBr) were mixed for tablet compression analysis with transmittance at 400–4000 cm^−1, collected using an iS10 FTIR spectrometer (USA). Measurements were performed by averaging 32 scans at 4-cm^−1 resolution (signal-to-noise ratio (S/N) = 50,000). The single-molecule STM imaging experiments were performed under ambient conditions by using a Nanoscope IIIa SPM system (Bruker, USA). 10 μL of the peptide solution was incubated on the surface of freshly cleaved highly oriented pyrolytic graphite (HOPG) at room temperature for 20 min. Then the excess peptide solution was removed from the substrate surface. The STM tips were mechanically made by Ir/Pt wires (20/80). Different STM tips and samples were used in these imaging experiments to ensure reproducibility. […] Zeta potentials of samples were determined using a Zetasizer Nano ZS90 (England) via three tests in a 1-mL sample cell. All CD datum were collected using Chirascan Plus (England) and analyzed at 190-260 nm. […] Pyridine infrared (IR) were measured at 1400–1700 cm^−1 using Thermo Scientific Nicolet 380 (USA). […] The fluorescence signals (I374nm, I394nm) were collected for detecting CMC using the pyrene probe under excitation at 330 nm across various concentrations of peptides.

[2] = test system: C. albicans (ATCC10231, ATCC90028, ATCC90029); parameters: key: R: resistant; S: susceptible; DD-S: Dose dependent-susceptible; conditions: ref ATCC; cited from earlier work
Excerpt: […] T h re e times each experiment was repeated independently with similar results. Representative images are shown. (1 picture or pasted object on this page, not shown here)

[3] = test system: E. coli (CMCC(B)44102); test: Antibacterial activity, colony counting; type: cell-based, Escherichia coli
Description: (§1) The antibacterial effects of Ni-IH-7 were also evaluated with E. coli (CMCC(B)44102), S. aureus (ATCC 29213) and Methicillin-resistant Staphylococcus aureus (MRSA) (ATCC43300), G. vaginalis (ATCC14018) and metronidazole-resistant G. vaginalis (provided by Xishan People’s Hospital of Wuxi City) under the similar procedures as those for C. albicans. Initially, E. coli, S. aureus and MRSA stored at -80°C were thawed and inoculated into Luria-Bertani liquid culture medium for overnight shaking. The culture volume was 5 mL, and the incubation conditions were set at 37°C in an air incubator. The next day, E. coli, S. aureus and MRSA were transferred to fresh culture medium and incubated for 2 h to activate the bacteria. The inoculum was approximately 10^5-6 CFU mL^−1. The culture volume was 10 mL, and the conditions were maintained at 37 °C in an air incubator. The quantities of E. coli, S. aureus and MRSA could reach 10^7-8 CFU mL^−1. Mixtures of 100 µL of E. coli, S. aureus and MRSA with 100 µL of Ni-IH-7 solution were prepared in 800 µL of sterile water and incubated for 0–6 h. Subsequently, 100 µL of different dilutions of the mixture were evenly spread on Luria-Bertani agar plates, followed by incubation at 37 °C from 24 to 48 h, and colony counting assay was performed to determine antibacterial efficiency. Similarly, G. vaginalis stored at −80°C was thawed and inoculated into brain-heart infusion (BHI) medium. This BHI medium consisted of brain/heart infusion broth containing 1% gelatin, 1% yeast extract, 0.1% soluble starch, 0.1% glucose, and 10% fetal bovine serum, and the inoculation process occurred overnight. The volume of the medium used was 5 mL, and the incubation condition was set at 37 °C in an incubator with 5% CO2. Following an overnight incubation post-inoculation, the necessary amount of bacterial solution was taken and transferred into fresh medium at a ratio of 1:25. This fresh medium was then cultured at 37°C with 5% CO2 for 6–8 h until the OD600 reached approximately 0.5. Next, an appropriate quantity of the bacterial inoculum was centrifuged at 4300 × g for 5 min at 4 °C to replace the bacteria from the culture medium with an equivalent volume of sterile water. For the experimental setup, 100 µL of G. vaginalis was mixed with 900 µL of sterile water as the control group. In the experimental group, 100 µL of G. vaginalis was mixed with either Ni-IH-7 solutions, Ni(Ac)2, or metronidazole in 800 µL of sterile water. The colony counting assay was performed to determine antibacterial efficiency.

[4] = test system: S. aureus (ATCC 29213); test: Antibacterial activity, colony counting; type: cell-based, Staphylococcus aureus
Description: as §1

[5] = test system: G. vaginalis (ATCC14018); test: Antibacterial activity, colony counting; type: cell-based, Gardnerella vaginalis
Description: as §1

[6] = PLC-like activity (PLC activity Assay Kit); type: biochemical
Description: To detect POD-like activity, 140 µL of sodium acetate buffer (pH 4.5, 0.2 M), 20 µL of 10 mM TMB, 20 µL of 1.5 mM Ni-IH-7 or 1.5 mM 4H2O·Ni(Ac)2, and 20 µL of H2O2 (50 mM) were added in order and reacted for 2 h at 37 °C. Absorbance at 652 nm was monitored using a microplate reader. PLC activity Assay Kit was used to detect PLC-like activity.

[7] = test system: snailase
[8] = test system: neutral protease
[9] = test system: lyticase
[10] = 25 μg mL-1, in sterile water, replicate 1 of n = 3
[11] = 25 μg mL-1, in sterile water, replicate 2 of n = 3
[12] = 25 μg mL-1, in sterile water, replicate 3 of n = 3
[13] = 50 μg mL-1, in sterile water, replicate 1 of n = 3
[14] = 50 μg mL-1, in sterile water, replicate 2 of n = 3
[15] = 50 μg mL-1, in sterile water, replicate 3 of n = 3
[16] = 100 μg mL-1, in sterile water, replicate 1 of n = 3
[17] = 100 μg mL-1, in sterile water, replicate 2 of n = 3
[18] = 100 μg mL-1, in sterile water, replicate 3 of n = 3

For IHIHICI [IH-7], the “thermal stability of conformation” value ([1]; variable temperature CD, 20–95 °C) was “changed from random coil at low temperature to α-helix at high temperature”.

In the case of `OC(Cn1cncn1)(Cn1cncn1)c1ccc(F)cc1F` [Fluconazole], the “resistance degree of C. albicans ATCC 10231” value [2] is listed as “R”, the “resistance degree of C. albicans ATCC 90028” value [2] is listed as “S” and the “resistance degree of C. albicans ATCC 90029” value [2] is listed as “S”.

In the case of `CCCCCOc1ccc(-c2ccc(-c3ccc(C(=O)N[C@H]4C[C@@H](O)[C@@H](O)NC(=O)[C@@H]5[C@@H](O)[C@@H](C)CN5C(=O)[C@H]([C@@H](C)O)NC(=O)[C@H]([C@H](O)[C@@H](O)c5ccc(O)cc5)NC(=O)[C@@H]5C[C@@H](O)CN5C(=O)[C@H]([C@@H](C)O)NC4=O)cc3)cc2)cc1` [Anidulafungin] ({pTerphenylCO(4''-OnC5H11)}-[Orn(4R-OH,5R-OH)]T[Hyp][hTyr(3S-OH,4S-OH)]T[Pro(3S-OH,4S-Me)]; lactam 1-C), the “resistance degree of C. albicans ATCC 10231” value [2] is listed as “R”, the “resistance degree of C. albicans ATCC 90028” value [2] is listed as “S” and the “resistance degree of C. albicans ATCC 90029” value [2] is listed as “S”.

With `CC(=O)[O-].CC(=O)[O-].O.O.O.O.[Ni+2]` [Ni2+, nickel acetate] the “Antimicrobial activity toward E. coli (Figure 7a)” value [3, 10] was 6.041, the “Antimicrobial activity toward E. coli (Figure 7a)” value [3, 11] was 6.4456 and the “Antimicrobial activity toward E. coli (Figure 7a)” value [3, 12] was 6.497. For the same compound, the “Antimicrobial activity toward E. coli (Figure 7a)” value [3, 13] was 5.633, the “Antimicrobial activity toward E. coli (Figure 7a)” value [3, 14] was 6.487 and the “Antimicrobial activity toward E. coli (Figure 7a)” value [3, 15] was 6.525. The “Antimicrobial activity toward E. coli (Figure 7a)” value [3, 16] was 5.929, the “Antimicrobial activity toward E. coli (Figure 7a)” value [3, 17] was 6.479 and the “Antimicrobial activity toward E. coli (Figure 7a)” value [3, 18] was 6.497. For the same compound, the “Antimicrobial activity toward S. aureus (Figure 7b)” value [4, 10] was 7.5682, the “Antimicrobial activity toward S. aureus (Figure 7b)” value [4, 11] was 6.875 and the “Antimicrobial activity toward S. aureus (Figure 7b)” value [4, 12] was 7.049. The “Antimicrobial activity toward S. aureus (Figure 7b)” value [4, 13] was 7.146, the “Antimicrobial activity toward S. aureus (Figure 7b)” value [4, 14] was 6.498 and the “Antimicrobial activity toward S. aureus (Figure 7b)” value [4, 15] was 7.364. The “Antimicrobial activity toward S. aureus (Figure 7b)” value [4, 16] was 6.991, the “Antimicrobial activity toward S. aureus (Figure 7b)” value [4, 17] was 7.161 and the “Antimicrobial activity toward S. aureus (Figure 7b)” value [4, 18] was 7.352. For the same compound, the “Antimicrobial activity toward G. vaginalis (Figure 7c)” value ([5]; 10 μg mL-1, in sterile water, replicate 1 of n = 3) was 5.431, the “Antimicrobial activity toward G. vaginalis (Figure 7c)” value ([5]; 10 μg mL-1, in sterile water, replicate 2 of n = 3) was 5.477 and the “Antimicrobial activity toward G. vaginalis (Figure 7c)” value ([5]; 10 μg mL-1, in sterile water, replicate 3 of n = 3) was 5.4624. The “Antimicrobial activity toward G. vaginalis (Figure 7c)” value [5, 13] was 5.826, the “Antimicrobial activity toward G. vaginalis (Figure 7c)” value [5, 14] was 5.602 and the “Antimicrobial activity toward G. vaginalis (Figure 7c)” value [5, 15] was 5.74. For the same compound, the “Antimicrobial activity toward G. vaginalis (Figure 7c)” value [5, 16] was 5.13, the “Antimicrobial activity toward G. vaginalis (Figure 7c)” value [5, 17] was 5.041 and the “Antimicrobial activity toward G. vaginalis (Figure 7c)” value [5, 18] was 5.1038. The “PLC-like activity (Figure 5d)” value ([6]; replicate 1 of n = 3) was 0.0001855, the “PLC-like activity (Figure 5d)” value ([6]; replicate 2 of n = 3) was 0.002181 and the “PLC-like activity (Figure 5d)” value ([6]; replicate 3 of n = 3) was 0.003085.

In the case of `C[C@@H](c1ncncc1F)[C@](O)(Cn1cncn1)c1ccc(F)cc1F` [Voriconazole], the “resistance degree of C. albicans ATCC 10231” value [2] is listed as “S”, the “resistance degree of C. albicans ATCC 90028” value [2] is listed as “S” and the “resistance degree of C. albicans ATCC 90029” value [2] is listed as “S”.

In the case of `CCCCCOc1ccc(-c2cc(-c3ccc(C(=O)N[C@H]4C[C@@H](O)[C@@H](O)NC(=O)[C@@H]5[C@@H](O)[C@@H](C)CN5C(=O)[C@H]([C@H](O)CC(N)=O)NC(=O)[C@H]([C@H](O)[C@@H](O)c5ccc(O)c(OS(=O)(=O)O)c5)NC(=O)[C@@H]5C[C@@H](O)CN5C(=O)[C@H]([C@@H](C)O)NC4=O)cc3)no2)cc1` [Micafungin] (X1-[Orn(4R-OH,5R-OH)]T[Hyp][hTyr(3S-OH,4S-OH,3'-OSO3H)][Gln(3R-OH)][Pro(3S-OH,4S-Me)]; lactam 1-C), the “resistance degree of C. albicans ATCC 10231” value [2] is listed as “S”, the “resistance degree of C. albicans ATCC 90028” value [2] is listed as “S” and the “resistance degree of C. albicans ATCC 90029” value [2] is listed as “S”.

For `CC[C@H](C)C[C@H](C)CCCCCCCCC(=O)N[C@H]1C[C@@H](O)[C@@H](NCCN)NC(=O)[C@@H]2[C@@H](O)CCN2C(=O)[C@H]([C@H](O)CCN)NC(=O)[C@H]([C@H](O)[C@@H](O)c2ccc(O)cc2)NC(=O)[C@@H]2C[C@@H](O)CN2C(=O)[C@H]([C@@H](C)O)NC1=O` [Caspofungin], the “resistance degree of C. albicans ATCC 10231” value [2] is listed as “S”, the “resistance degree of C. albicans ATCC 90028” value [2] is listed as “S” and the “resistance degree of C. albicans ATCC 90029” value [2] is listed as “S”.

In the case of `CCC(C)n1ncn(-c2ccc(N3CCN(c4ccc(OCC5COC(Cn6cncn6)(c6ccc(Cl)cc6Cl)O5)cc4)CC3)cc2)c1=O` (centres unmarked) [Itraconazole], the “resistance degree of C. albicans ATCC 10231” value [2] is listed as “R”, the “resistance degree of C. albicans ATCC 90028” value [2] is listed as “DD-S” and the “resistance degree of C. albicans ATCC 90029” value [2] is listed as “S”.

In the case of `Nc1nc(=O)[nH]cc1F` [5-Flucytosine], the “resistance degree of C. albicans ATCC 10231” value [2] is given as “S”, the “resistance degree of C. albicans ATCC 90028” value [2] is given as “S” and the “resistance degree of C. albicans ATCC 90029” value [2] is given as “R”.

For IHIHICI [Ni-IH-7], the “thermal stability of conformation” value [1] was “retained β-sheet conformation”, the “resistance to enzymatic degradation by snailase” value [7] was “considerable resistance to enzymatic degradation” and the “resistance to enzymatic degradation by neutral protease” value [8] was “considerable resistance to enzymatic degradation”. For the same compound, the “resistance to enzymatic degradation by lyticase” value [9] was “considerable resistance to enzymatic degradation”.
